Test results as given in BigSolDB 2.1.

Structure (SMILES): C[C@H](N)C(=O)O
- solubility (mole fraction) (in acetone, 283.15 K): 7.1e-05
- solubility (mole fraction) (in acetone, 293.15 K): 0.000116
- solubility (mole fraction) (in acetone, 303.15 K): 0.000138
- solubility (mole fraction) (in acetone, 313.15 K): 0.000166
- solubility (mole fraction) (in acetone, 323.15 K): 0.000202
- solubility (mole fraction) (in acetonitrile, 283.15 K): 7.6e-05
- solubility (mole fraction) (in acetonitrile, 293.15 K): 0.000121
- solubility (mole fraction) (in acetonitrile, 303.15 K): 0.000157
- solubility (mole fraction) (in acetonitrile, 313.15 K): 0.000178
- solubility (mole fraction) (in acetonitrile, 323.15 K): 0.000209
- solubility (mole fraction) (in ethanol, 283.15 K): 0.000193
- solubility (mole fraction) (in ethanol, 293.15 K): 0.000226
- solubility (mole fraction) (in ethanol, 303.15 K): 0.000244
- solubility (mole fraction) (in ethanol, 313.15 K): 0.000251
- solubility (mole fraction) (in ethanol, 323.15 K): 0.00027
- solubility (mole fraction) (in ethyl acetate, 283.15 K): 7.8e-05
- solubility (mole fraction) (in ethyl acetate, 293.15 K): 0.00014
- solubility (mole fraction) (in ethyl acetate, 303.15 K): 0.00016
- solubility (mole fraction) (in ethyl acetate, 313.15 K): 0.00018
- solubility (mole fraction) (in ethyl acetate, 323.15 K): 0.000217
- solubility (mole fraction) (in isobutanol, 283.15 K): 0.000294
- solubility (mole fraction) (in isobutanol, 293.15 K): 0.000314
- solubility (mole fraction) (in isobutanol, 303.15 K): 0.000332
- solubility (mole fraction) (in isobutanol, 313.15 K): 0.000346
- solubility (mole fraction) (in isobutanol, 323.15 K): 0.000361
- solubility (mole fraction) (in isopropanol, 283.15 K): 8.2e-05
- solubility (mole fraction) (in isopropanol, 293.15 K): 0.000144
- solubility (mole fraction) (in isopropanol, 303.15 K): 0.000174
- solubility (mole fraction) (in isopropanol, 313.15 K): 0.00019
- solubility (mole fraction) (in isopropanol, 323.15 K): 0.000245
- solubility (mole fraction) (in methanol, 283.15 K): 0.000407
- solubility (mole fraction) (in methanol, 293.15 K): 0.000428
- solubility (mole fraction) (in methanol, 303.15 K): 0.00049
- solubility (mole fraction) (in methanol, 313.15 K): 0.000531
- solubility (mole fraction) (in methanol, 323.15 K): 0.00062
- solubility (mole fraction) (in n-butanol, 283.15 K): 0.000414
- solubility (mole fraction) (in n-butanol, 293.15 K): 0.000449
- solubility (mole fraction) (in n-butanol, 303.15 K): 0.000517
- solubility (mole fraction) (in n-butanol, 313.15 K): 0.000611
- solubility (mole fraction) (in n-butanol, 323.15 K): 0.000895
- solubility (mole fraction) (in n-pentanol, 283.15 K): 0.000216
- solubility (mole fraction) (in n-pentanol, 293.15 K): 0.000253
- solubility (mole fraction) (in n-pentanol, 303.15 K): 0.00032
- solubility (mole fraction) (in n-pentanol, 313.15 K): 0.000382
- solubility (mole fraction) (in n-pentanol, 323.15 K): 0.000465
- solubility (mole fraction) (in n-propanol, 283.15 K): 0.000122
- solubility (mole fraction) (in n-propanol, 293.15 K): 0.000215
- solubility (mole fraction) (in n-propanol, 303.15 K): 0.000261
- solubility (mole fraction) (in n-propanol, 313.15 K): 0.000313
- solubility (mole fraction) (in n-propanol, 323.15 K): 0.000452
- solubility (mole fraction) (in sec-butanol, 283.15 K): 0.000297
- solubility (mole fraction) (in sec-butanol, 293.15 K): 0.000333
- solubility (mole fraction) (in sec-butanol, 303.15 K): 0.000407
- solubility (mole fraction) (in sec-butanol, 313.15 K): 0.000552
- solubility (mole fraction) (in sec-butanol, 323.15 K): 0.000734
- solubility (mole fraction) (in water, 283.15 K): 0.0279
- solubility (mole fraction) (in water, 293.15 K): 0.0308
- solubility (mole fraction) (in water, 303.15 K): 0.0342
- solubility (mole fraction) (in water, 313.15 K): 0.038
- solubility (mole fraction) (in water, 323.15 K): 0.042
